From the NIST ThermoML archive (doi:10.1021/je300240k)
Values joined by “and” are separate entries in the source; they are usually repeats but may differ in a detail not shown here. Equal values may be shown once.

Settings: Liquid, Ebulliometric method (Recirculating still)

F/C=C/C(F)(F)F [trans-1,3,3,3-tetrafluoropropene]
Settings | vapor or sublimation pressure
223.1 K | 21 kPa
228.08 K | 28 kPa
232.99 K | 36 kPa
238.04 K | 47 kPa
243.02 K | 61 kPa
248.04 K | 77 kPa
253.02 K | 96 kPa
257.14 K | 115 kPa
258.04 K | 119 kPa
259.15 K | 125 kPa
261.15 K | 136 kPa
263.1 K | 147 kPa
263.15 K | 147 kPa
265.15 K | 160 kPa
267.15 K | 173 kPa
268.01 K | 178 kPa
269.15 K | 186 kPa
271.15 K | 201 kPa
273.06 K | 216 kPa
273.15 K | 216 kPa
275.15 K | 233 kPa
277.15 K | 250 kPa
278.01 K | 258 kPa
279.15 K | 269 kPa
281.15 K | 288 kPa
282.93 K | 306 kPa
283.15 K | 308 kPa
285.15 K | 330 kPa
287.15 K | 352 kPa
287.89 K | 361 kPa
289.15 K | 376 kPa
291.15 K | 401 kPa
292.85 K | 423 kPa
293.15 K | 427 kPa
295.15 K | 455 kPa
297.15 K | 484 kPa
297.69 K | 492 kPa
297.87 K | 495 kPa
298.77 K | 508 kPa
299.15 K | 514 kPa
301.15 K | 546 kPa
303.15 K | 579 kPa
303.68 K | 588 kPa
305.15 K | 614 kPa and 613 kPa
307.15 K | 649 kPa
308.82 K | 681 kPa
309.15 K | 687 kPa
311.15 K | 726 kPa
312.85 K | 761 kPa
313.15 K | 767 kPa
315.15 K | 810 kPa
317.15 K | 854 kPa
317.75 K | 868 kPa
319.15 K | 900 kPa
321.15 K | 948 kPa
323.1 K | 997 kPa
323.15 K | 998 kPa
325.15 K | 1050 kPa
327.15 K | 1104 kPa
328.12 K | 1130 kPa
329.15 K | 1160 kPa
331.15 K | 1218 kPa
333.11 K | 1276 kPa
333.15 K | 1278 kPa
335.15 K | 1340 kPa
337.15 K | 1405 kPa
338.11 K | 1436 kPa
339.15 K | 1472 kPa
341.15 K | 1541 kPa
343.1 K | 1610 kPa
343.15 K | 1613 kPa
348.09 K | 1799 kPa
353.08 K | 2005 kPa
